Source: US20240024488A1, “COMPOUNDS AND USES THEREOF” (Foghorn Therapeutics Inc., priority 2020, published 2024)

Key:
[1] = target: T1, HiBit-BRG1 fusion protein (Homo sapiens, UniProt P51532); test: HiBiT-BRG1 cell-based degradation assay (Nano-Glo HiBiT Lytic Detection, 24 h); conditions: HeLa cell line expressing HiBit-BRG1 and LgBit; for Dmax: read-out: BRG1 HiBit Degradation Maximum (%); for DC50: read-out: BRMG1 HiBit Degradation IC50
T1 construct: expressed in transfected cells
Summary of the method: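 Stable HeLa line co-expressing HiBit-BRG1 and LgBit, 5000 cells/well, treated 24 h in a tissue culture incubator. Lysed with Nano-Glo HiBiT lytic reagent, luminescence read. % degradation normalized to DMSO (high control) and 2 μM reference BRM/BRG1 degrader (low control).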

HiBit-BRM fusion protein = target: T2, HiBit-BRM fusion protein (Homo sapiens, UniProt P51531); test: HiBiT-BRM cell-based degradation assay (Nano-Glo HiBiT Lytic Detection, 24 h); conditions: HeLa cell line expressing HiBiT-BRM; for DC50: read-out: BRM HiBit Degradation IC50
T2 construct: expressed in transfected cells
Summary of the method: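 Percent BRM loss was derived from HiBiT luminescence relative to DMSO-treated cells and cells given 2 μM of a known BRM/BRG1 degrader. Treatment lasted 24 h in HiBiT-BRM HeLa cells, with a top final concentration of 30 μM.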

T2 sequence (P51531 whole entry, the tested form may be a part): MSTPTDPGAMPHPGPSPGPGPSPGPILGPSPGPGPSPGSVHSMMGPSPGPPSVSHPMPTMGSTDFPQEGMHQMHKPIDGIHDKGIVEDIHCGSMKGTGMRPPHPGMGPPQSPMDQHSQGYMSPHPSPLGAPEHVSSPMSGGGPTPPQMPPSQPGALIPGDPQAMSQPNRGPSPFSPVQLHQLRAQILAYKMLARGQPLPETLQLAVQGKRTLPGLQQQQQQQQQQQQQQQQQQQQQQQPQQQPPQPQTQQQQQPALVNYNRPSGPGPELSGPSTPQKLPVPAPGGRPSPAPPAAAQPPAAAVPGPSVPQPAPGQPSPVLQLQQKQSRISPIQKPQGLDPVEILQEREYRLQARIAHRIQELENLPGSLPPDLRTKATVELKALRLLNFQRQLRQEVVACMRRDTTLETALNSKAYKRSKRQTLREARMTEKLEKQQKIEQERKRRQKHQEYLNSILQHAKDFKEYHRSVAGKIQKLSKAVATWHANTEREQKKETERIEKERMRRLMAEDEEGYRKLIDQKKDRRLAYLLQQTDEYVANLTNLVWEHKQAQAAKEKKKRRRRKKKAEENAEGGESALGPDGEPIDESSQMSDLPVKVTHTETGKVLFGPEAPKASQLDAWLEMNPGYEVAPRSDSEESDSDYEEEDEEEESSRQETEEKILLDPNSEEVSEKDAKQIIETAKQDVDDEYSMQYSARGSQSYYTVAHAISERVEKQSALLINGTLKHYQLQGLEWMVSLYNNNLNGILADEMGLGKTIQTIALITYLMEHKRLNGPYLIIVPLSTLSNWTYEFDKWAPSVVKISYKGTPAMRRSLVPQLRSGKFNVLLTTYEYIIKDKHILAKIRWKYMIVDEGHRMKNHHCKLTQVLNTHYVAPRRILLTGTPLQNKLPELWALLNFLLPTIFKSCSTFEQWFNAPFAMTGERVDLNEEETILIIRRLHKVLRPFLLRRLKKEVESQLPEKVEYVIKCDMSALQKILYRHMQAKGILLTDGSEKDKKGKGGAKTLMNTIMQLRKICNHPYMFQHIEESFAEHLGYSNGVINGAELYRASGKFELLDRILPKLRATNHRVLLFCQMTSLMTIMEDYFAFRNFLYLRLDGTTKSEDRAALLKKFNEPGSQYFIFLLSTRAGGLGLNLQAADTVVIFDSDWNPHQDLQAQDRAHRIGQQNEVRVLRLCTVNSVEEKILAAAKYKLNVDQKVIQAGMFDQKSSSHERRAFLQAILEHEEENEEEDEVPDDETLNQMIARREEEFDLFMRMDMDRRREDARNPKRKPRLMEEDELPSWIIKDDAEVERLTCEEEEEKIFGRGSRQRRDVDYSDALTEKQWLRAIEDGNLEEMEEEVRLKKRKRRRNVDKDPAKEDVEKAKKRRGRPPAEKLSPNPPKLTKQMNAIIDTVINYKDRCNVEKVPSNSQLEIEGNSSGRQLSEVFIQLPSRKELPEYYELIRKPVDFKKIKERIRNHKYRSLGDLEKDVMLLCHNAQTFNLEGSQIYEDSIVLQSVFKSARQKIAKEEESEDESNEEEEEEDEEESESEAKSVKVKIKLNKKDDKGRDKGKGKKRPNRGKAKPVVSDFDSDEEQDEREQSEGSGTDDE
T1 sequence (P51532 whole entry, the tested form may be a part): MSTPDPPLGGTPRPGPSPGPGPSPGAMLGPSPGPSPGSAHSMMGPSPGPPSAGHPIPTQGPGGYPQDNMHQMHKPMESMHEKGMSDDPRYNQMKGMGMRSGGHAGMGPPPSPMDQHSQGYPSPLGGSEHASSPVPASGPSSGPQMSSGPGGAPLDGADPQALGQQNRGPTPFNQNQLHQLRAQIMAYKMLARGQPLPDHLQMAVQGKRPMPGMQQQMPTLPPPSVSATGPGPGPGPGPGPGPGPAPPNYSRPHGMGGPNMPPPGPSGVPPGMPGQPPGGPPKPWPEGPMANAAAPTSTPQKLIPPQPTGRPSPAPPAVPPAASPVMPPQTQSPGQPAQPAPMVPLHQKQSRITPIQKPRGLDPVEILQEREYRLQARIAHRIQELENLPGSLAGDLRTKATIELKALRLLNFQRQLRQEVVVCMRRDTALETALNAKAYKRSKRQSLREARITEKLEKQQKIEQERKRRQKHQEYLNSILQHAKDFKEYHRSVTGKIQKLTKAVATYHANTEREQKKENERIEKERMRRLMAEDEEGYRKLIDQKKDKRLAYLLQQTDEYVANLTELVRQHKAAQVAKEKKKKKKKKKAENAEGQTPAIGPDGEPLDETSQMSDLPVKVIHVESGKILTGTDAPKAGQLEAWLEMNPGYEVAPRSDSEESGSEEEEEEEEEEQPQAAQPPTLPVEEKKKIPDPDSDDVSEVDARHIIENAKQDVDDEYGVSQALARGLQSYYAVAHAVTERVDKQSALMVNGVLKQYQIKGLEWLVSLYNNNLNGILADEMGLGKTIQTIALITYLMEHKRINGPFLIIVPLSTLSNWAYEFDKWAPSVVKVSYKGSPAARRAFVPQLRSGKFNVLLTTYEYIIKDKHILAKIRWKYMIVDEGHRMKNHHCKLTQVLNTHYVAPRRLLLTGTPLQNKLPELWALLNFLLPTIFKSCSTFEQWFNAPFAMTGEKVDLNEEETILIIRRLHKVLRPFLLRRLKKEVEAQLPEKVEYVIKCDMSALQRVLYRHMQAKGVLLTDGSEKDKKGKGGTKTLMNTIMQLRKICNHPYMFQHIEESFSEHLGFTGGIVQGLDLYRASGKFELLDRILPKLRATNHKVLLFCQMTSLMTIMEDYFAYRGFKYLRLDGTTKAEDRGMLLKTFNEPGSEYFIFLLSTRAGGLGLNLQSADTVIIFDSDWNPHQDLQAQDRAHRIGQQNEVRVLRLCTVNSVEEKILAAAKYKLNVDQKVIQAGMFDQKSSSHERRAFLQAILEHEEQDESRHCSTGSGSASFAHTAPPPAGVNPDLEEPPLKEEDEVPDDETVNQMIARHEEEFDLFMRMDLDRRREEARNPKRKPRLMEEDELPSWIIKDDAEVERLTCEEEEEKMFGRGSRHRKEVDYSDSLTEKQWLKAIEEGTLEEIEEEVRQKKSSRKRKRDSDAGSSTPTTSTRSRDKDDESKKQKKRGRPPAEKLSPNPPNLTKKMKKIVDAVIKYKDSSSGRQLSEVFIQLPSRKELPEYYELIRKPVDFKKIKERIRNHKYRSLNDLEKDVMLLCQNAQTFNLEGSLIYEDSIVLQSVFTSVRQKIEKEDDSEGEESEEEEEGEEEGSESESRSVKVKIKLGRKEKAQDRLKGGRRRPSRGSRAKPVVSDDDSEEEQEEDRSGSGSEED

Cc1ncsc1-c1ccc([C@H](C)NC(=O)[C@@H]2C[C@@H](O)CN2C(=O)[C@@H](c2cc(OCCN3C[C@@H]4[C@H](C3)[C@H]4c3cc4cc(-c5cccc(Cl)c5O)nnc4[nH]3)no2)C(C)C)cc1 (racemic) [Compound 110, (2S,4R)-1-((R)-2-(3-(2-((1R,5S,6R)-6-(3-(3-chloro-2-hydroxyphenyl)-7H-pyrrolo[2,3-c]pyridazin-6-yl)-3-azabicyclo[3.1.0]hexan-3-yl)ethoxy)isoxazol-5-yl)-3-methylbutanoyl)-4-hydroxy-N-((S)-1-(4-(4-methylthiazol-5-yl)phenyl)ethyl)pyrrolidine-2-carboxamide]
Dmax [1]: < 50% | BRM HiBit Degradation Maximum (%) (HiBit-BRM fusion protein): A (“A” indicates maximum degradation ≥ 75%) | DC50 (HiBit-BRM fusion protein): > 10 nM

Cc1ncsc1-c1ccc([C@H](C)NC(=O)[C@@H]2C[C@@H](O)CN2C(=O)[C@@H](c2cc(N3CCC(N(C)[C@H]4CCc5[nH]c6nnc(-c7ccccc7O)cc6c5C4)CC3)no2)C(C)C)cc1 (racemic) [Compound 111, (2S,4R)-4-hydroxy-1-((R)-2-(3-(4-(((S)-3-(2-hydroxyphenyl)-6,7,8,9-tetrahydro-5H-pyridazino[3,4-b]indol-6-yl)(methyl)amino)piperidin-1-yl)isoxazol-5-yl)-3-methylbutanoyl)-N-((S)-1-(4-(4-methylthiazol-5-yl)phenyl)ethyl)pyrrolidine-2-carboxamide]
Dmax [1]: > 50% | DC50 [1]: > 100 nM | BRM HiBit Degradation Maximum (%) (HiBit-BRM fusion protein): A (“A” indicates maximum degradation ≥ 75%) | DC50 (HiBit-BRM fusion protein): > 10 nM

Cc1ncsc1-c1ccc([C@H](C)NC(=O)[C@@H]2C[C@@H](O)CN2C(=O)[C@@H](c2cc(C3CCN(Cc4cc5cc(-c6ccccc6O)nnc5[nH]4)CC3)no2)C(C)C)cc1 (racemic) [Compound 118, (2S,4R)-4-hydroxy-1-((R)-2-(3-(1-((3-(2-hydroxyphenyl)-7H-pyrrolo[2,3-c]pyridazin-6-yl)methyl)piperidin-4-yl)isoxazol-5-yl)-3-methylbutanoyl)-N-((S)-1-(4-(4-methylthiazol-5-yl)phenyl)ethyl)pyrrolidine-2-carboxamide]
Dmax [1]: < 50% | BRM HiBit Degradation Maximum (%) (HiBit-BRM fusion protein): A (“A” indicates maximum degradation ≥ 75%) | DC50 (HiBit-BRM fusion protein): > 10 nM

Cc1ncsc1-c1ccc([C@H](C)NC(=O)[C@@H]2C[C@@H](O)CN2C(=O)[C@@H](c2cc(OCCN3CC(c4[nH]c5nnc(-c6ccccc6O)cc5c4Br)C3)no2)C(C)C)cc1 (racemic) [Compound 120]
Dmax [1]: < 50% | BRM HiBit Degradation Maximum (%) (HiBit-BRM fusion protein): A (“A” indicates maximum degradation ≥ 75%) | DC50 (HiBit-BRM fusion protein): > 10 nM

Cc1ncsc1-c1ccc([C@H](C)NC(=O)[C@@H]2C[C@@H](O)CN2C(=O)[C@@H](c2cc(OCCN3CC(c4[nH]c5nnc(-c6ccccc6O)cc5c4F)C3)no2)C(C)C)cc1 (racemic) [Compound 121, (2S,4R)-1-[(2R)-2-[3-(2-{3-[5-fluoro-3-(2-hydroxyphenyl)-7H-pyrrolo[2,3-c]pyridazin-6-yl]azetidin-1-yl}ethoxy)-1,2-oxazol-5-yl]-3-methylbutanoyl]-4-hydroxy-N-[(1S)-1-[4-(4-methyl-1,3-thiazol-5-yl)phenyl]ethyl]pyrrolidine-2-carboxamide]
Dmax [1]: < 50% | BRM HiBit Degradation Maximum (%) (HiBit-BRM fusion protein): A (“A” indicates maximum degradation ≥ 75%) | DC50 (HiBit-BRM fusion protein): > 100 nM

Cc1ncsc1-c1ccc([C@H](C)NC(=O)[C@@H]2C[C@@H](O)CN2C(=O)[C@@H](c2cc(N3CCN(C(=O)N4CC(c5cc6cc(-c7ccccc7O)nnc6[nH]5)C4)CC3)no2)C(C)C)cc1 (racemic) [Compound 124, (2S,4R)-4-hydroxy-1-[(2R)-2-[3-(4-{3-[3-(2-hydroxyphenyl)-7H-pyrrolo[2,3-c]pyridazin-6-yl]azetidine-1-carbonyl}piperazin-1-yl)-1,2-oxazol-5-yl]-3-methylbutanoyl]-N-[(1S)-1-[4-(4-methyl-1,3-thiazol-5-yl)phenyl]ethyl]pyrrolidine-2-carboxamide]
DC50 [1]: > 100 nM | BRM HiBit Degradation Maximum (%) (HiBit-BRM fusion protein): A (“A” indicates maximum degradation ≥ 75%) | DC50 (HiBit-BRM fusion protein): > 10 nM

Cc1ncsc1-c1ccc([C@H](C)NC(=O)[C@@H]2C[C@@H](O)CN2C(=O)[C@@H](c2cc(OCCN3C[C@@H]4[C@H](C3)[C@H]4c3[nH]c4nnc(-c5cc(F)cc(F)c5O)cc4c3C)no2)C(C)C)cc1 (racemic) [Compound 125, (2S,4R)-1-((R)-2-(3-(2-((1R,5S,6R)-6-(3-(3,5-difluoro-2-hydroxyphenyl)-5-methyl-7H-pyrrolo[2,3-c]pyridazin-6-yl)-3-azabicyclo[3.1.0]hexan-3-yl)ethoxy)isoxazol-5-yl)-3-methylbutanoyl)-4-hydroxy-N-((S)-1-(4-(4-methylthiazol-5-yl)phenyl)ethyl)pyrrolidine-2-carboxamide]
Dmax [1]: < 50% | BRM HiBit Degradation Maximum (%) (HiBit-BRM fusion protein): A (“A” indicates maximum degradation ≥ 75%) | DC50 (HiBit-BRM fusion protein): > 10 nM

Cc1ncsc1-c1ccc([C@H](C)NC(=O)[C@@H]2C[C@@H](O)CN2C(=O)[C@@H](c2cc(OCCN3C[C@@H]4[C@H](C3)[C@H]4c3[nH]c4nnc(-c5cccc(F)c5O)cc4c3C)no2)C(C)C)cc1 (racemic) [Compound 126, (2S,4R)-1-((R)-2-(3-(2-((1R,5S,6R)-6-(3-(3-fluoro-2-hydroxyphenyl)-5-methyl-7H-pyrrolo[2,3-c]pyridazin-6-yl)-3-azabicyclo[3.1.0]hexan-3-yl)ethoxy)isoxazol-5-yl)-3-methylbutanoyl)-4-hydroxy-N-((S)-1-(4-(4-methylthiazol-5-yl)phenyl)ethyl)pyrrolidine-2-carboxamide]
Dmax [1]: > 50% | DC50 [1]: > 100 nM | BRM HiBit Degradation Maximum (%) (HiBit-BRM fusion protein): A (“A” indicates maximum degradation ≥ 75%) | DC50 (HiBit-BRM fusion protein): > 10 nM

Cc1ncsc1-c1ccc([C@H](C)NC(=O)[C@@H]2C[C@@H](O)CN2C(=O)[C@@H](c2cc(OCCN3CC(c4[nH]c5nnc(-c6cccc(F)c6O)cc5c4C)C3)no2)C(C)C)cc1 (racemic) [Compound 127, (2S,4R)-1-((R)-2-(3-(2-(3-(3-(3-fluoro-2-hydroxyphenyl)-5-methyl-7H-pyrrolo[2,3-c]pyridazin-6-yl)azetidin-1-yl)ethoxy)isoxazol-5-yl)-3-methylbutanoyl)-4-hydroxy-N-((S)-1-(4-(4-methylthiazol-5-yl)phenyl)ethyl)pyrrolidine-2-carboxamide]
Dmax [1]: < 50% | BRM HiBit Degradation Maximum (%) (HiBit-BRM fusion protein): A (“A” indicates maximum degradation ≥ 75%) | DC50 (HiBit-BRM fusion protein): > 10 nM

Cc1ncsc1-c1ccc([C@H](C)NC(=O)[C@@H]2C[C@@H](O)CN2C(=O)[C@@H](c2cc(OCCCN3C[C@@H]4[C@H](C3)[C@H]4c3c(C)[nH]c4nnc(-c5ccccc5O)cc34)no2)C(C)C)cc1 (racemic) [Compound 128, (2S,4R)-4-hydroxy-1-((R)-2-(3-(3-((1R,5S,6S)-6-(3-(2-hydroxyphenyl)-6-methyl-7H-pyrrolo[2,3-c]pyridazin-5-yl)-3-azabicyclo[3.1.0]hexan-3-yl)propoxy)isoxazol-5-yl)-3-methylbutanoyl)-N-((S)-1-(4-(4-methylthiazol-5-yl)phenyl)ethyl)pyrrolidine-2-carboxamide]
Dmax [1]: > 75% | DC50 [1]: > 10 nM | BRM HiBit Degradation Maximum (%) (HiBit-BRM fusion protein): A (“A” indicates maximum degradation ≥ 75%) | DC50 (HiBit-BRM fusion protein): < 10 nM
